Patent EP4653444A1, “FUSED TRICYCLIC COMPOUND AS KINASE INHIBITOR” (Hangzhou Innogate Pharma Co., Ltd., priority 2023, dated 2024)
Read-outs that look alike come from different tables or passages of the source.

How the values were obtained:
[1] = target: T1, ULK1 kinase (Homo sapiens, UniProt O75385); experiment: ULK kinase activity inhibition assay (ADP-Glo); type: biochemical
T1 sequence (O75385 1-1050): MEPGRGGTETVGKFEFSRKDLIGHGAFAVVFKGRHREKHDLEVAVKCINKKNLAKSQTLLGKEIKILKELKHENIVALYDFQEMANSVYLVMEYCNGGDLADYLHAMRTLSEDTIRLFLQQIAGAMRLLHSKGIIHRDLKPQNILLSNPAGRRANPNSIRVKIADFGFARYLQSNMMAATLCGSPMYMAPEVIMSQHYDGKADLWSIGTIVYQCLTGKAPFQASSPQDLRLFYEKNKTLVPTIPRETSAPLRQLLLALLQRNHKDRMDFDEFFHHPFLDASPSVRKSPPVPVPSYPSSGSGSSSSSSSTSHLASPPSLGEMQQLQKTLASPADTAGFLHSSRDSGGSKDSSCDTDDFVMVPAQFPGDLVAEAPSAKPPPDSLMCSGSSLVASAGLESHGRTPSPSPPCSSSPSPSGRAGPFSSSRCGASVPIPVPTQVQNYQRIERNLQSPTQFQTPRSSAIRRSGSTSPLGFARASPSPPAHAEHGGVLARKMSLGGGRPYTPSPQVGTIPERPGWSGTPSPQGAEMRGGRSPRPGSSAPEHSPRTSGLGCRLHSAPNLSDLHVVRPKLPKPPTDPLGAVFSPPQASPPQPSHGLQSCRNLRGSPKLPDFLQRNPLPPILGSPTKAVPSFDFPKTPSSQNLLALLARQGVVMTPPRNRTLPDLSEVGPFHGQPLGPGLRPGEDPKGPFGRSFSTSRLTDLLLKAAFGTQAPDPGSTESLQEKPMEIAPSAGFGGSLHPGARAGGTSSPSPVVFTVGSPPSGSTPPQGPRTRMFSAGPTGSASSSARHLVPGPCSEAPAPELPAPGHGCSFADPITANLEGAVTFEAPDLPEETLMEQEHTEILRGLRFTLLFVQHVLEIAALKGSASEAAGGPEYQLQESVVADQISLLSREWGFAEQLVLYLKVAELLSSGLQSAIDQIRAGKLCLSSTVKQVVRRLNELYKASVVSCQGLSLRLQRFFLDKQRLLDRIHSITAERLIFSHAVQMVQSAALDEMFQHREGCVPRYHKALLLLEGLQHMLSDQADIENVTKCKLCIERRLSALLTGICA
Description: (§1) The ADP-Glo method was used to evaluate the inhibitory activity of the compounds against ULK1 and ULK2 kinases. Prepare 1× kinase reaction buffer (final working concentrations: HEPES 50 mM, MgCl2 10 mM, Brij35 0.01%, EGTA 1 mM, DTT 2 mM). Prepare 2× kinase and […] substrate solutions: ULK1 kinase at 0.5 nM; substrate mix containing ATP at 100 µM and MBP at 0.1 mg/mL. ULK2 kinase at 0.15 nM; substrate mix containing ATP at 6 µM and MBP at 0.1 mg/mL. Compounds were serially diluted in DMSO and shaken on a shaker for 20 minutes. Prepare 2× kinase using 1× kinase reaction buffer. Transfer 20 nL of compound into a 384-well plate. Add 2 µL of kinase to each well of the reaction plate. Seal the plate with sealing film, centrifuge at 1000 rpm for 60 seconds, and incubate at 25°C for 10 minutes. Prepare 2× ATP & MBP mixture using 1× kinase reaction buffer and add 2 µL to each well. Seal the plate, centrifuge at 1000 rpm for 60 seconds, and incubate at 25°C for 60 minutes. Add 4 µL ADP-Glo reagent to the 384-well plate, centrifuge at 1000 rpm for 1 minute, and incubate at 25°C for 40 minutes. Then, add 8 µL Detection Reagent, centrifuge at 1000 rpm for 1 minute, and incubate at 25°C for 40 minutes. Read the RLU (Relative Luminescence Unit) signal using a BMG plate reader to indicate kinase activity. Inhibition rate was calculated as: % Inhibition = 100% - [(Compound - Positive Control)/(Negative Control - Positive Control)] × 100%. IC50 values (half-maximal inhibitory concentration) were calculated by nonlinear regression using GraphPad Prism 7.0. Y = Bottom + (Top - Bottom)/(1 + 10^((LogIC50 - X) × Hill Slope)), where X is the log of compound concentration and Y is the % inhibition.

[2] = target: T2, ULK2 kinase (Homo sapiens, UniProt Q8IYT8); experiment: ULK kinase activity inhibition assay (ADP-Glo); type: biochemical
T2 sequence (Q8IYT8 1-1036): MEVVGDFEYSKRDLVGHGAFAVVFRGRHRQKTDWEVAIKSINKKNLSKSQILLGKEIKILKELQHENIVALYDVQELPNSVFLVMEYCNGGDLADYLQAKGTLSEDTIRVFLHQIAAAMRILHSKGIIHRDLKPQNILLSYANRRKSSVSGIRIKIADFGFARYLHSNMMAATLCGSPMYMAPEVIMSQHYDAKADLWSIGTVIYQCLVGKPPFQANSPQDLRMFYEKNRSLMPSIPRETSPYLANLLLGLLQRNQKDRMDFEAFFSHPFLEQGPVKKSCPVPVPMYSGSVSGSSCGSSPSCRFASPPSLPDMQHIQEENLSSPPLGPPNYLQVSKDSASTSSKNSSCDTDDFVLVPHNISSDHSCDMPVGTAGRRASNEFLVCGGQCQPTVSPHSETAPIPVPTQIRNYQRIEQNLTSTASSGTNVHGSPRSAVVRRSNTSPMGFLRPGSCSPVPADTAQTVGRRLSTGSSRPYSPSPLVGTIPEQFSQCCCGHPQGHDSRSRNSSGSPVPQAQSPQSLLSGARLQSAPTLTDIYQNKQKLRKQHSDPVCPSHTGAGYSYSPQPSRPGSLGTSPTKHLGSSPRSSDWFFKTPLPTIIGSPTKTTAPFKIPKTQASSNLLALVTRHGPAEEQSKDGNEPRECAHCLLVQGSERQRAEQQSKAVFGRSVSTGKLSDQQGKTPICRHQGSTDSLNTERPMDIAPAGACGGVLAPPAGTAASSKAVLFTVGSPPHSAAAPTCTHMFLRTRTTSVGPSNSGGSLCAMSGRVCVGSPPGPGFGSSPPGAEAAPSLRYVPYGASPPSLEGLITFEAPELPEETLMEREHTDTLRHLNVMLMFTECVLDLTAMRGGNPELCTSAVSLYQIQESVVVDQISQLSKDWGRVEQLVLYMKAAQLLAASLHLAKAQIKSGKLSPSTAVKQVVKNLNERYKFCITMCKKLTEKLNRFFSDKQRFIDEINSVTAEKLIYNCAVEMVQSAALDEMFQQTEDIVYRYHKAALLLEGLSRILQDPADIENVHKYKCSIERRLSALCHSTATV
Description: as §1

[3] = Pharmacokinetic study in rats; settings: rat, plasma, po, 3 mg/kg
Description: Pharmacokinetic parameters were calculated by statistical moment method using WinNonLin 8.0 software, mainly including Tmax, T1/2, Cmax and AUC0-24h.
Animals: Three male SD rats weighing 200-220 g were used. After purchase, they were housed in the laboratory animal center for 2 days before experiment. […] Blood samples were collected at scheduled time points after oral gavage.
Vehicle: 0.4% ethanol + 0.4% Tween 80 + 99.2% (0.5% methylcellulose M450). Preparation of oral gavage solution: The compound was accurately weighed and dissolved in vehicle by ultrasonication for 5 min at room temperature to prepare 0.3 mg/mL drug solution.
Single compound administration was also used to study pharmacokinetics in rats.
Blood sample collection: After oral gavage, blood samples were collected from orbital sinus at 0.25, 0.5, 1, 2, 4, 8, 10 and 24 h. 50 µL plasma was mixed with 200 µL acetonitrile (containing 2 ng/mL verapamil as internal standard). The mixture was vortexed for 3 min, then centrifuged at 20000 rcf for 10 min at 4 °C. The supernatant was analyzed by LC-MS/MS.
Standard curves were established by accurately weighing and preparing compounds at different concentrations for mass spectrometric quantification. Compound concentrations in plasma samples were determined based on standard curves to obtain concentration-time profiles. All measurement data were collected and processed by relevant software. Pharmacokinetic parameters (including Tmax, T1/2, Cmax and AUC0-24h) were calculated by statistical moment method.

[4] = target: FAK kinase (Homo sapiens, UniProt Q05397); experiment: FAK kinase activity inhibition assay, method A (HTRF); type: biochemical
Description: The HTRF method was used to evaluate the inhibitory activity of the compounds against FAK kinase. […]. The reaction conditions were: FAK kinase at 0.1 ng/µL; ATP 10 µM; substrate concentration 1 µM. Compounds were serially diluted in DMSO and shaken on a shaker for 20 minutes. Prepare 2× kinase using 1× reaction buffer. Transfer 25 nL compound to a 384-well plate using Echo 655. Add 2.5 µL kinase per well. Seal the plate with sealing film, centrifuge at 1000 rpm for 60 seconds, and incubate at 25°C for 12 hours. Prepare 2× ATP/substrate mix using 1× enzyme reaction buffer and add 2.5 µL 2× ATP/substrate mix per well. Seal the plate with sealing film, centrifuge at 1000 rpm for 60 seconds, and incubate at 25°C for 50 minutes. Prepare 2×XL665 & antibody solution using HTRF detection buffer, and add 5 µL per well. Incubate at 25°C for 60 minutes. Read fluorescence at 620 nm (Cryptate) and 665 nm (XL665). Calculate the ratio per well (Ratio_665/620 nm). % Inhibition = 100% - [(Compound Ratio - Positive Control Ratio)/ (Negative Control Ratio - Positive Control Ratio)] × 100%. IC50 values (half-maximal inhibitory concentration) were calculated by nonlinear regression using GraphPad Prism 7.0. Y = Bottom + (Top - Bottom)/ (1 + 10^ ((LogIC50 - X) × Hill Slope)), where X is the log of compound concentration and Y is the % inhibition.

[5] = ADP-Glo, ATP 100 µM, read-out: ULK1 (IC50)
[6] = ADP-Glo, ATP 6 µM, read-out: ULK2 (IC50)

FAK kinase, sequence (Q05397 whole entry): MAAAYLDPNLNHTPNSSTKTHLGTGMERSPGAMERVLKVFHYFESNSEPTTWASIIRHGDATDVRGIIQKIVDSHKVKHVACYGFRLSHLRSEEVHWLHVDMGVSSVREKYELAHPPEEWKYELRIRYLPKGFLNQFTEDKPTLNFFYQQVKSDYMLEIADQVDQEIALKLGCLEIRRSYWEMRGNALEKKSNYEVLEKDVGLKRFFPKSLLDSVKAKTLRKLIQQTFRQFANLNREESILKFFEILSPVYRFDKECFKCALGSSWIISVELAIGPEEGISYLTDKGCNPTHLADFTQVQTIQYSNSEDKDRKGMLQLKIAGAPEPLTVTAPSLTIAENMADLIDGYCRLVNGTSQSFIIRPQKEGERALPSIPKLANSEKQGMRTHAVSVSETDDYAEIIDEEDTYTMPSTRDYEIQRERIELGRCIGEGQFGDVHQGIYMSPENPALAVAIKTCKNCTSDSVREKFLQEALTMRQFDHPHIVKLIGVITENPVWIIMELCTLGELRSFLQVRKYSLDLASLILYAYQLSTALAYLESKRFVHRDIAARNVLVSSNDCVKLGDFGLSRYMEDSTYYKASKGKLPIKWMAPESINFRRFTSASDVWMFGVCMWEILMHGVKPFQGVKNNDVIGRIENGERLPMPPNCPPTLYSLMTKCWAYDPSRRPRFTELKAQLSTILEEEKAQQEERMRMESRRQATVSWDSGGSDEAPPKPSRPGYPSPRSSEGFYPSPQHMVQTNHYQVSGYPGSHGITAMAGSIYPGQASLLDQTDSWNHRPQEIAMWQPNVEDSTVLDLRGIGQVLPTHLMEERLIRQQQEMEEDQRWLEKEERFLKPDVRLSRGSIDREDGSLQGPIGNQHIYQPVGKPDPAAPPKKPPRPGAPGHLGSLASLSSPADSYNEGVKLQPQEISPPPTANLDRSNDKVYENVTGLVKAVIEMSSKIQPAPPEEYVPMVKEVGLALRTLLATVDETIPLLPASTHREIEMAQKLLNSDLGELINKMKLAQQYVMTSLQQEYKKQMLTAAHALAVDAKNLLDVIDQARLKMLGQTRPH

## CCc1cc2c(cc1Nc1ncc(C(F)(F)F)c(NCCCN3CCOCCC3=O)n1)OC[C@H]1CN(C)CCN21 [Compound A1R]
[1]; [5]
  IC50: < 3 nM
[2]; [6]
  IC50: < 1 nM
[3]
  AUC(0-t) at 24 h: 326 ng·h/mL
  Cmax: 74.2 ng/mL
  Tmax: 1.2 h
  half-life: 1.5 h

## CCc1cc2c(cc1Nc1ncc(C(F)(F)F)c(NCCCN3CCOCCC3=O)n1)OC[C@H]1CN(C3CCN(C)CC3)CCN21 [Compound A2R]
[1]
  IC50: < 3 nM
[2]
  IC50: < 5 nM
[3]
  AUC(0-t) at 24 h: 1940 ng·h/mL
  Cmax: 149 ng/mL
  Tmax: 8 h
  half-life: 8.8 h

## CCc1cc2c(cc1Nc1ncc(C(F)(F)F)c(NCCCN3CCOCCC3=O)n1)OC[C@H]1CN(C3CCOCC3)CCN21 [Compound A3R]
[1]
  IC50: < 3 nM
[2]
  IC50: < 1 nM
[3]
  AUC(0-t) at 24 h: 1040 ng·h/mL
  Cmax: 223 ng/mL
  Tmax: 1.2 h
  half-life: 1.4 h

## CCc1cc2c(cc1Nc1ncc(C(F)(F)F)c(NCCCN3CCOCCC3=O)n1)OC[C@H]1CNCCN21 [Compound A4R]
[1]; [5]
  IC50: < 1 nM
[2]; [6]
  IC50: < 1 nM
[3]
  AUC(0-t) at 24 h: 880 ng·h/mL
  Cmax: 217 ng/mL
  Tmax: 1.2 h
  half-life: 2.1 h

## CCc1cc2c(cc1Nc1ncc(C(F)(F)F)c(NCCCN3CCCCC3=O)n1)OC[C@H]1CNCCN21 [Compound A5R]
[1]; [5]
  IC50: < 1 nM
[2]; [6]
  IC50: < 1 nM

## CCc1cc2c(cc1Nc1ncc(C(F)(F)F)c(NCCCN3CCCCC3=O)n1)OC[C@H]1CN(C3CCN(C)CC3)CCN21 [Compound A6R]
[1]
  IC50: < 3 nM
[2]
  IC50: < 5 nM
[3]
  AUC(0-t) at 24 h: 1080 ng·h/mL
  Cmax: 77.3 ng/mL
  Tmax: 6.7 h
  half-life: 8.3 h

## CCc1cc2c(cc1Nc1ncc(C(F)(F)F)c(NCCCN3CCCCC3=O)n1)OC[C@H]1CN(C3CCOCC3)CCN21 [Compound A7R]
[1]
  IC50: < 3 nM
[2]
  IC50: < 1 nM

## CCc1cc2c(cc1Nc1ncc(C(F)(F)F)c(NCCCN3CCCCC3=O)n1)OC[C@H]1CN(C)CCN21 [Compound A8R]
[1]; [5]
  IC50: < 1 nM
[2]; [6]
  IC50: < 1 nM
[3]
  AUC(0-t) at 24 h: 685 ng·h/mL
  Cmax: 222 ng/mL
  Tmax: 0.8 h
  half-life: 1 h

## CCN1CCN2c3cc(OC)c(Nc4ncc(C(F)(F)F)c(CCc5ccccc5CC(N)=O)n4)cc3OC[C@H]2C1 [Compound B5R]
[3]
  AUC(0-t) at 24 h: 685 ng·h/mL
  Cmax: 118 ng/mL
  Tmax: 2 h
  half-life: 2.8 h
[4]
  IC50: < 0.5 nM

## COc1cc2c(cc1Nc1ncc(C(F)(F)F)c(CCc3ccccc3CC(N)=O)n1)OC[C@H]1CN(C3CC3)CCN21 [Compound B6R]
[3]
  AUC(0-t) at 24 h: 905 ng·h/mL
  Cmax: 299 ng/mL
  Tmax: 1 h
  half-life: 1.3 h
[4]
  IC50: < 1 nM

## COc1cc2c(cc1Nc1ncc(C(F)(F)F)c(CCc3ccccc3CC(N)=O)n1)OC[C@H]1CN(C(C)=O)CCN21 [Compound B7R]
[3]
  AUC(0-t) at 24 h: 1430 ng·h/mL
  Cmax: 390 ng/mL
  Tmax: 2 h
  half-life: 1.2 h
[4]
  IC50: < 0.5 nM

## COc1cc2c(cc1Nc1ncc(C(F)(F)F)c(CCc3ccccc3CC(N)=O)n1)OC[C@H]1CN(S(C)(=O)=O)CCN21 [Compound B8R]
[3]
  AUC(0-t) at 24 h: 133 ng·h/mL
  Cmax: 39.3 ng/mL
  Tmax: 1.7 h
  half-life: 1.5 h
[4]
  IC50: < 0.5 nM

## COc1cc2c(cc1Nc1ncc(C(F)(F)F)c(CCc3ccccc3CC(N)=O)n1)OC[C@H]1CN(C3CN(C)C3)CCN21 [Compound B9R]
[3]
  AUC(0-t) at 24 h: 368 ng·h/mL
  Cmax: 61.8 ng/mL
  Tmax: 3.3 h
  half-life: 2.6 h
[4]
  IC50: < 0.5 nM
